In ChEMBL document CHEMBL4422668 (Bioorg Med Chem Lett, 2019):
The source made the active and inactive calls. The rule behind the calls is not given here. Non-standard residues stand in square brackets, D forms with d. Residues, ends and D or L forms follow the SMILES beside them. NMeR = CN[C@@H](CCCNC(=N)N)C(=O)O; NMeF = CN[C@@H](Cc1ccccc1)C(=O)O; NMeT = CN[C@H](C(=O)O)[C@@H](C)O; NMeN = CN[C@@H](CC(N)=O)C(=O)O; NMeL = CN[C@@H](CC(C)C)C(=O)O; NMeS = CN[C@@H](CO)C(=O)O

What was measured:
Streptococcus mutans [1] = experiment: Agonist activity at Streptococcus mutans SAB249 ComD receptor assessed as increase in cipB expression at 10 uM after 1 hr by beta-galactosidase reporter gene assay relative to control
Streptococcus mutans [2] = experiment: Antagonist activity at Streptococcus mutans SAB249 ComD receptor assessed as inhibition of 18-CSP-induced cipB expression at 10 uM after 1 hr by beta-galactosidase reporter gene assay
Streptococcus mutans [3] = experiment: Activation of comD quorum sensing system in Streptococcus mutans SMCC3 harboring comC deletion mutant assessed as reduction in inhibition zone of Streptococcus anginosus ATCC 33397 at 5 to 100 nM preincubated for 4 hrs followed by Streptococcus anginosus ATCC 33397 addition and measured after 24 hrs
[4] = Agonist activity at Streptococcus mutans SAB249 ComD receptor assessed as increase in cipB expression after 1 hr by beta-galactosidase reporter gene assay
Streptococcus mutans [5] = experiment: (§1) Activation of comD quorum sensing system in Streptococcus mutans SMCC3 harboring comC deletion mutant assessed as reduction in inhibition zone of Streptococcus anginosus ATCC 33397 at 0.25 nM preincubated for 4 hrs followed by Streptococcus anginosus ATCC 33397 addition and measured after 24 hrs
Streptococcus mutans [6] = experiment: as §1, with “0.25 to 1” for “0.25”

Row | Compound | Activity (Streptococcus mutans [1]) | inhibition (Streptococcus mutans [2]) | further results
1 | CC(C)C[C@H](NC(=O)[C@H](CCCNC(=N)N)NC(=O)[C@H](Cc1ccccc1)NC(=O)[C@H](Cc1ccccc1)NC(=O)[C@@H](NC(=O)[C@H](CO)NC(=O)[C@H](CC(C)C)NC(=O)[C@@H](N)CO)[C@@H](C)O)C(=O)N[C@@H](Cc1ccccc1)C(=O)N[C@@H](CC(N)=O)C(=O)N(C)[C@@H](CCCNC(=N)N)C(=O)N[C@@H](CO)C(=O)N[C@@H](Cc1ccccc1)C(=O)N[C@H](C(=O)N[C@@H](CCC(N)=O)C(=O)N[C@@H](C)C(=O)O)[C@@H](C)O (H-SLSTFFRLFN[NMeR]SFTQA-OH) | 5% | inactive | inhibition (Streptococcus mutans [3]): Active
2 | CC(C)C[C@H](NC(=O)[C@H](CCCNC(=N)N)NC(=O)[C@H](Cc1ccccc1)NC(=O)[C@H](Cc1ccccc1)NC(=O)[C@@H](NC(=O)[C@H](CO)NC(=O)[C@H](CC(C)C)NC(=O)[C@@H](N)CO)[C@@H](C)O)C(=O)N[C@@H](Cc1ccccc1)C(=O)N(C)[C@@H](CC(N)=O)C(=O)N[C@@H](CCCNC(=N)N)C(=O)N[C@@H](CO)C(=O)N[C@@H](Cc1ccccc1)C(=O)N[C@H](C(=O)N[C@@H](CCC(N)=O)C(=O)N[C@@H](C)C(=O)O)[C@@H](C)O (H-SLSTFFRLF[NMeN]RSFTQA-OH) | 11% | inactive | 
3 | CC(C)C[C@H](NC(=O)[C@@H](N)CO)C(=O)N[C@@H](CO)C(=O)N[C@H](C(=O)N[C@@H](Cc1ccccc1)C(=O)N[C@@H](Cc1ccccc1)C(=O)N[C@@H](CCCNC(=N)N)C(=O)N[C@@H](CC(C)C)C(=O)N(C)[C@@H](Cc1ccccc1)C(=O)N[C@@H](CC(N)=O)C(=O)N[C@@H](CCCNC(=N)N)C(=O)N[C@@H](CO)C(=O)N[C@@H](Cc1ccccc1)C(=O)N[C@H](C(=O)N[C@@H](CCC(N)=O)C(=O)N[C@@H](C)C(=O)O)[C@@H](C)O)[C@@H](C)O (H-SLSTFFRL[NMeF]NRSFTQA-OH) | 0% | inactive | inhibition (Streptococcus mutans [3]): Active
4 | CC(C)C[C@H](NC(=O)[C@@H](N)CO)C(=O)N[C@@H](CO)C(=O)N[C@H](C(=O)N[C@@H](Cc1ccccc1)C(=O)N[C@@H](Cc1ccccc1)C(=O)N[C@@H](CCCNC(=N)N)C(=O)N(C)[C@@H](CC(C)C)C(=O)N[C@@H](Cc1ccccc1)C(=O)N[C@@H](CC(N)=O)C(=O)N[C@@H](CCCNC(=N)N)C(=O)N[C@@H](CO)C(=O)N[C@@H](Cc1ccccc1)C(=O)N[C@H](C(=O)N[C@@H](CCC(N)=O)C(=O)N[C@@H](C)C(=O)O)[C@@H](C)O)[C@@H](C)O (H-SLSTFFR[NMeL]FNRSFTQA-OH) | 29% | inactive | 
5 | CC(C)C[C@H](NC(=O)[C@H](CCCNC(=N)N)NC(=O)[C@H](Cc1ccccc1)NC(=O)[C@H](Cc1ccccc1)NC(=O)[C@H]([C@@H](C)O)N(C)C(=O)[C@H](CO)NC(=O)[C@H](CC(C)C)NC(=O)[C@@H](N)CO)C(=O)N[C@@H](Cc1ccccc1)C(=O)N[C@@H](CC(N)=O)C(=O)N[C@@H](CCCNC(=N)N)C(=O)N[C@@H](CO)C(=O)N[C@@H](Cc1ccccc1)C(=O)N[C@H](C(=O)N[C@@H](CCC(N)=O)C(=O)N[C@@H](C)C(=O)O)[C@@H](C)O (H-SLS[NMeT]FFRLFNRSFTQA-OH) |  |  | EC50 [4]: > 1000 nM
6 | H-GSLSAFFRAFNAAFTAA-OH |  |  | inhibition (Streptococcus mutans [3]): Active; inhibition (Streptococcus mutans [5]): Active
7 | H-GSLSAFFRAFNAAFTQA-OH |  |  | inhibition (Streptococcus mutans [3]): Active; inhibition (Streptococcus mutans [5]): Active
8 | H-GSLSTFFRLFNRSFTQA-OH |  |  | EC50 [4]: 4.8 nM
9 | H-SGSLSTFFRLFNRSFTQA-OH | 100% |  | EC50 [4]: 6.2 nM; inhibition (Streptococcus mutans [6]): inactive

More lines, main results first:

Row | Activity (Streptococcus mutans [1]) | inhibition (Streptococcus mutans [2]) | Compound | further results
10 | 38% | inactive | CC(C)C[C@H](NC(=O)[C@H](CCCNC(=N)N)NC(=O)[C@H](Cc1ccccc1)NC(=O)[C@H](Cc1ccccc1)NC(=O)[C@@H](NC(=O)[C@H](CO)NC(=O)[C@H](CC(C)C)NC(=O)[C@@H](N)CO)[C@@H](C)O)C(=O)N[C@@H](Cc1ccccc1)C(=O)N[C@@H](CC(N)=O)C(=O)N[C@@H](CCCNC(=N)N)C(=O)N[C@@H](CO)C(=O)N[C@@H](Cc1ccccc1)C(=O)N(C)[C@H](C(=O)N[C@@H](CCC(N)=O)C(=O)N[C@@H](C)C(=O)O)[C@@H](C)O (H-SLSTFFRLFNRSF[NMeT]QA-OH) | 
11 | 17% | inactive | CC(C)C[C@H](NC(=O)[C@H](CCCNC(=N)N)NC(=O)[C@H](Cc1ccccc1)NC(=O)[C@H](Cc1ccccc1)NC(=O)[C@@H](NC(=O)[C@H](CO)NC(=O)[C@H](CC(C)C)NC(=O)[C@@H](N)CO)[C@@H](C)O)C(=O)N[C@@H](Cc1ccccc1)C(=O)N[C@@H](CC(N)=O)C(=O)N[C@@H](CCCNC(=N)N)C(=O)N[C@@H](CO)C(=O)N(C)[C@@H](Cc1ccccc1)C(=O)N[C@H](C(=O)N[C@@H](CCC(N)=O)C(=O)N[C@@H](C)C(=O)O)[C@@H](C)O (H-SLSTFFRLFNRS[NMeF]TQA-OH) | 
12 | 12% | inactive | CC(C)C[C@H](NC(=O)[C@H](CCCNC(=N)N)NC(=O)[C@H](Cc1ccccc1)NC(=O)[C@H](Cc1ccccc1)NC(=O)[C@@H](NC(=O)[C@H](CO)NC(=O)[C@H](CC(C)C)NC(=O)[C@@H](N)CO)[C@@H](C)O)C(=O)N[C@@H](Cc1ccccc1)C(=O)N[C@@H](CC(N)=O)C(=O)N[C@@H](CCCNC(=N)N)C(=O)N(C)[C@@H](CO)C(=O)N[C@@H](Cc1ccccc1)C(=O)N[C@H](C(=O)N[C@@H](CCC(N)=O)C(=O)N[C@@H](C)C(=O)O)[C@@H](C)O (H-SLSTFFRLFNR[NMeS]FTQA-OH) | 
13 | 45% | inactive | CC(C)C[C@H](NC(=O)[C@@H](N)CO)C(=O)N[C@@H](CO)C(=O)N[C@H](C(=O)N[C@@H](Cc1ccccc1)C(=O)N[C@@H](Cc1ccccc1)C(=O)N(C)[C@@H](CCCNC(=N)N)C(=O)N[C@@H](CC(C)C)C(=O)N[C@@H](Cc1ccccc1)C(=O)N[C@@H](CC(N)=O)C(=O)N[C@@H](CCCNC(=N)N)C(=O)N[C@@H](CO)C(=O)N[C@@H](Cc1ccccc1)C(=O)N[C@H](C(=O)N[C@@H](CCC(N)=O)C(=O)N[C@@H](C)C(=O)O)[C@@H](C)O)[C@@H](C)O (H-SLSTFF[NMeR]LFNRSFTQA-OH) | 
14 | 100% |  | H-SLSTFFRLFNRSFTQA-OH | EC50 [4]: 7.9 nM
